# Laboratory results taken from US5698691A, “Condensed cyclic compounds and their use” (Takeda Chemical Industries, Ltd., priority 1993, dated 1997).
# Legend:
# squalene synthetase [1] = target: T1, squalene synthetase (Rattus norvegicus, UniProt Q02769); assay: Squalene synthetase inhibitory activity, rat-derived enzyme (liver microsome fraction); format: biochemical; conditions: SD rat liver microsome fraction; 5 uM [1-3H] farnesyl pyrophosphate, 37° C., 45 minutes
# T1 construct: from tissue; host or cells: rat liver microsome fraction (SD male rat, 6 weeks old)
# T1 sequence (Q02769 1-416): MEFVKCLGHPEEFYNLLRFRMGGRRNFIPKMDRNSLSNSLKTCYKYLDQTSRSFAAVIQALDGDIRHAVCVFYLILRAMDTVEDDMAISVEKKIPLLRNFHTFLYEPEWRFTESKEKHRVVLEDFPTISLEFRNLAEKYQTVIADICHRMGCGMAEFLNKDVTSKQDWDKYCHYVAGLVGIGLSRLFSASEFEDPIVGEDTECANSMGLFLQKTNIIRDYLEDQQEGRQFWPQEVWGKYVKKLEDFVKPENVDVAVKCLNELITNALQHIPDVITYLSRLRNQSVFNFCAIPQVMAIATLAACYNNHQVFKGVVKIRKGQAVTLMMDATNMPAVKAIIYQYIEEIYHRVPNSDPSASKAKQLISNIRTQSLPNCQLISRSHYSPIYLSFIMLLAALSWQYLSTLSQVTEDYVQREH
# Protocol: (§1) Assay Method of Squalene Synthetase Inhibitory Activity
# (§2) The squalene synthetase inhibitory activity was assayed as follows with the enzyme solutions described in the subsequent Experimental Examples 1 and 2.
# (§3) More specifically, an enzyme solution (protein content 0.8 ug) prepared in Experimental Example 1 or 2 was added to a solution (total volume 50 μl)) containing 5 uM [1-^3 H] farnesyl pyrophosphate (specific activity 25 uCi/mole), 1 mM NADPH, 5 mM MgCl2, 6 mM glutathione, a 100 mM buffer solution of potassium phosphate (pH 7.4) and a test drug (used as an aqueous solution or a DMSO solution), then the reaction was allowed to proceed at 37° C. for 45 minutes. To the reaction mixture was added 150 μl of a mixture of chloroform and methanol (1:2) to suspend the reaction, followed by adding 50 μl of chloroform and 50 μl of a 3N aqueous solution of sodium hydroxide. 50 μl of the chloroform layer (lower layer) containing the reaction mixture having squalene as the principal component and 3 ml of toluene-based liquid scintillator were mixed, and its radioactivity was determined by means of a liquid scintillation counter.
# (§4) The squalene synthetase inhibitory activity was expressed in terms of the concentration inhibiting by 50% the radioactivity taken into the chloroform layer (IC50, molar concentration (M)).
# An SD male rat (6 week old) was killed by bleeding, and its liver was excised. About 10 g of the liver was washed with a saline solution cooled with ice, which was then homogenized in 15 ml of an ice-cooled buffer solution [100 mM potassium phosphate (pH 7.4), 15 mM nicotinamide, 2 mM MgCl2 ], followed by centrifugation for 20 minutes (4° C.) with 10000×g. The supernatant layer was separated and subjected to further centrifugation for 90 minutes (4° C.) at 105000×g. The sediment was then suspended in an ice-cooled 100 mM phosphate buffer solution (pH 7.4), which was again subjected to centrifugation for 90 minutes (4° C.) at 105000×g. The sediment thus obtained (microsome fraction) was suspended in an ice-cooled 100 mM potassium phosphate buffer (pH 7.4) (about 40 mg/ml protein concentration, determined with BCA protein assay kit of Pias Co., Ltd.). This suspension was used as the enzyme solution.
# squalene synthetase [2] = target: T2, squalene synthetase (Homo sapiens, UniProt P37268); assay: Squalene synthetase inhibitory activity, human-derived enzyme (HepG2 microsome fraction); format: biochemical; conditions: 5 uM [1-3H] farnesyl pyrophosphate, 37° C., 45 minutes
# T2 construct: endogenous in cells; host or cells: HepG2 (human hepatic carcinoma) cells, microsome fraction
# T2 sequence (P37268 1-417): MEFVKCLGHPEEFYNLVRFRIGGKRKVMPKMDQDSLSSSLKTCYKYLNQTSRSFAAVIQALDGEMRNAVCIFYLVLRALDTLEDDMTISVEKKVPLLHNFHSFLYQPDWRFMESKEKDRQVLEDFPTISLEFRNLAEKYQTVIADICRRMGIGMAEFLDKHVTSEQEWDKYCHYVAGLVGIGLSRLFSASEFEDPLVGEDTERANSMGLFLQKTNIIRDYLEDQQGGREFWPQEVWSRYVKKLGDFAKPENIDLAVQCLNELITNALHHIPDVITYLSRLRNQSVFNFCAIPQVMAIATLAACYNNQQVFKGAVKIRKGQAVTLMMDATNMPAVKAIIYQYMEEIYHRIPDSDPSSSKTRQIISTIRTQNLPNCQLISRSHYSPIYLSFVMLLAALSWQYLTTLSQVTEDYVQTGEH
# Protocol: as §1, §2, §3, §4
# Human hepatic carcinoma cells HepG2 (about 1×10^9 cells) obtained by incubation in a Dulbecco-modified Eagle's medium (37° C. in the presence of 5% CO2) were suspended in 10 ml of an ice-cooled buffer solution [100 mM potassium phosphate buffer (pH 7.4), 30 mM nicotinamide and 2.5 mM MgCl2 ]. The cells were crashed by means of ultrasonication (for 30 seconds, twice). From the sonicate thus obtained, the microsome fraction was obtained by the same procedure as in Experiment Example 1, which was suspended in an ice-cooled 100 mM potassium phosphate buffer (pH 7.4) (about 4 mg/ml protein concentration). This suspension was used as the enzyme solution. The results are shown in [Table 4].
SMILES,IC50 (squalene synthetase [1]),IC50 (squalene synthetase [2])
"CC(C)(C)CN1C(=O)N(CC(=O)O)CC(c2ccccc2Cl)c2cc(Cl)ccc21 (centres unmarked) [Example 53, 7-Chloro-5-(2-chlorophenyl)-1-neopentyl-2-oxo-1,2,4,5-tetrahydro-3H-1,3-benzodiazepine-3-acetic acid]",290 nM,130 nM
"COc1cccc([C@H]2S[C@H](Cc3nnn[nH]3)C(=O)N(CC(C)(C)C)c3ccc(Cl)cc32)c1OC [Example 59, (3R,5S)-7-Chloro-5-(2,3-dimethoxyphenyl)-1-neopentyl-3-(tetrazol-5-yl)methyl-1,2,3,5-tetrahydro-4,1-benzothaizepin-2-one]",16 nM,10 nM
"CC(C)CN1C(=O)[C@@H](CC(=O)O)N[C@H](c2ccccc2Cl)c2cc(Cl)ccc21 [Example 14, (3R,5S)-1-Isobutyl-7-chloro-5-(2-chlorophenyl)-2,3,4,5-tetrahydro-2-oxo-1H-1,4-benzodiazepine-3-acetic acid]",430 nM,160 nM
"COc1ccc([C@H]2S[C@H](CC(=O)O)C(=O)N(CC(C)(C)C)c3ccc(Cl)cc32)c(OC)c1 [Example 51, (3R,5S)-7-Chloro-5-(2,4-dimethoxyphenyl)-1-neopentyl-2-oxo-1,2,3,5-tetrahydro-4,1-benzothiazepine-3-acetic acid]",21 nM,18 nM
"COc1ccccc1[C@H]1O[C@H](CC(=O)O)C(=O)N(CC(C)(C)C)c2sc(Cl)cc21 (relative stereo) [Example 33, 3,5-trans-7-Chloro-5-(2-methoxyphenyl)-1-neopentyl-2-oxo-1,2,3,5-tetrahydro-4,1-thieno[2,3-e]oxazepine-3-acetic acid]",88 nM,73 nM
"CC(C)(C)CN1C(=O)[C@@H](CC(=O)NCC(=O)O)S[C@H](c2ccccc2Cl)c2cc(Cl)ccc21 (relative stereo) [Example 23, N-[3,5-trans-7-Chloro-5-(2-chlorophenyl)-1-neopentyl-2-oxo-1,2,3,5-tetrahydro-4,1-benzothiazepine-3-acetyl]glycine]",22 nM,13 nM
"CC(C)CN1C(=O)C(CC(=O)O)CC(c2ccccc2Cl)c2cc(Cl)ccc21 (centres unmarked) [Example 26, 7-Chloro-5-(2-chlorophenyl)-1-isobutyl-2-oxo-2,3,4,5-tetrahydro-1H-[1]-benzazepine-3-acetic acid]",390 nM,120 nM
"CC(C)(C)CN1C(=O)[C@@H](CC(=O)O)S[C@H](c2ccccc2Cl)c2cc(Cl)ccc21 (relative stereo) [Example 9, 3,5-trans-7-Chloro-5-(2-chlorophenyl)-1-neopentyl-2-oxo-1,2,3,5-tetrahydro-4,1-benzothiazepine-3-acetic acid]",180 nM,39 nM
"COc1cccc([C@H]2S[C@H](CC(=O)O)C(=O)N(CC(C)(C)C)c3ccc(Cl)cc32)c1OC [Example 43, (3R,5S)-7-Chloro-5-(2,3-dimethoxyphenyl)-1-neopentyl-2-oxo-1,2,3,5-tetrahydro-4,1-benzothiazepine-3-acetic acid]",9.3 nM,5.9 nM

# Next, values leading:
IC50 (squalene synthetase [1]),IC50 (squalene synthetase [2]),SMILES
26 nM,13 nM,"COc1ccccc1[C@H]1S[C@H](CC(=O)O)C(=O)N(CC(C)C)c2ccc(Cl)cc21 (relative stereo) [Example 10-7, 3,5-trans-7-Chloro-5-(2-methoxyphenyl)-1-isobutyl-2-oxo-1,2,3,5-tetrahydro-4,1-benzothiazepine-3-acetic acid]"
23 nM,13 nM,"COc1ccccc1C1SC(CC(=O)O)C(=O)N(CC(C)(C)C)c2ccc(Cl)cc21 (stereo not drawn) [Example 10-8, 3,5-trans-7-Chloro-5-(2-methoxyphenyl)-1-neopentyl-2-oxo-1,2,3,5-tetrahydro-4,1-benzothiazepine-3-acetic acid]"
62 nM,42 nM,CCCN1C(=O)[C@@H](CC(=O)O)S[C@H](c2ccccc2Cl)c2cc(Cl)ccc21 (relative stereo) [Example 10-2]
51 nM,25 nM,"CC(C)CN1C(=O)[C@@H](CC(=O)O)S[C@H](c2ccccc2Cl)c2cc(Cl)ccc21 (relative stereo) [Example 10-5, 3,5-trans-7-Chloro-5-(2-chlorophenyl)-1-isobutyl-2-oxo-1,2,3,5-tetrahydro-4,1-benzothiazepine-3-acetic acid]"
39 nM,31 nM,CCCN1C(=O)[C@@H](CC(=O)O)S[C@H](c2ccccc2OC)c2cc(Cl)ccc21 (relative stereo) [Example 10-6]
–,2000 nM,"COC(=O)C[C@H]1S[C@H](c2ccccc2OC)c2cc(Cl)ccc2N(CC(C)C)C1=O (relative stereo) [Example 8-1, 3,5-trans-7-Chloro-5-(2-methoxyphenyl)-1-isobutyl-2-oxo-1,2,3,5-tetrahydro-4,1-benzothiazepine-3-acetic acid methyl ester]"
